The source of these data is a melting point compilation (Tetko et al.; mined from patent text by program, amines drawn as free bases though some values may be those of a salt).

As a reminder, the melting point is the temperature, or range, at which the solid turns liquid.

The compound `O=C(c1ccc(Cl)cc1)c1cccc(NC(=O)c2ccn3c2CSC3c2cccnc2)c1` (stereo not given) yielded a melting point of 176 °C.

The compound `CCCN(CCC)[C@H]1Cc2c[nH]c3ccc(-c4ccno4)c(c23)C1` registered a melting point of 126 to 127 °C.

Turning to `CC(C(=O)O)c1cccc(NC(=O)NCC(=O)N2[C@@H](c3ccccc3F)SC[C@H]2C(=O)OC(C)(C)C)c1` (stereo not given in full), the melting point is 126 °C.

Regarding `O=C(O)CC1(CC(O)=NO)CCCCC1`, the melting point was 104 °C.

The compound `COc1ccccc1COc1ccc(S(=O)(=O)c2ccc(C)nc2Nc2ccc(OC(F)F)cc2Cl)cc1` showed a melting point of 124 to 125 °C.

Regarding `CC(C(=O)O)=C1c2ccccc2C=Cc2ccccc21`, the melting point was in the range of 235 to 236 °C.

`CCOc1ccc(C(=O)C=Cc2ccc(SC)cc2)cc1` had a melting point of 108 °C.

In turn, `COC1(c2ccc(C=Cc3cc(F)cc(F)c3NC(=O)C(C)(C)C)cc2)CCOCC1` came in with a melting point of 77 to 79 °C.

Take `CN1CCN(c2ccccc2C=C2C(=O)N(Cc3ccc(Cl)c(Cl)c3)c3ccccc32)CC1`: the melting point lay within 120 to 124 °C.

Compound `CC1(C)Nc2cc(Br)ccc2-n2cccc21` came in with a melting point of 89 to 91 °C.

The compound `NC(=NO)c1ccc(-c2ccc(Cl)cc2)o1` came in with a melting point of 167 to 169 °C.

On to `COc1cc(C(=O)/C=C/c2ccc3c(c2)OCO3)cc(OC)c1OC`, for which the melting point was found to be 135 °C.

In turn, `CCCCCN(CCCCC)C(=O)N1CCN(C(=O)N(c2ccccc2)c2ccccc2)[C@H](CO)C1` showed a melting point of 133 to 134 °C.

For the compound `CSC(=O)c1cccc2c1[nH]c1ccccc12`, the melting point lay within 122 to 123 °C.

Regarding `CC(C)(C)OC(=O)N[C@@H](CCCCNC[C@H](O)CCl)C(=O)OC(C)(C)C`, the melting point lay within 87 to 88 °C.

The compound `Cc1ccccc1CC1CNC(=O)O1` (stereo not given) showed a melting point of 121 to 122 °C.

Compound `CCNC(=S)NNC(=O)OC` yielded a melting point of 117 °C.

As for `O=C(Nc1cccc2c1C(=O)c1c-2n[nH]c1C1CCN(C(=O)Oc2ccccc2)CC1)NN1CCOCC1`, the melting point was in the range of 250 to 252 °C.

Regarding `C=CCCOc1cc2c(c(Cl)c1Cl)C(=O)C(C)(C1CCCC1)C2` (stereo not given), the melting point was in the range of 63 to 65 °C.

In turn, `CCC(=O)Oc1ccc2c(c1)C(=O)N(C(=O)CC)C(C(Cl)(Cl)Cl)O2` (stereo not given) gave a melting point of 92 to 94 °C.

Turning to `CC(O)CCCCCCCCc1ccc(O)c(O)c1` (stereo not given), the melting point was 43 to 46 °C.

As for `CCCCCCCCCCCCCCOC(=O)CCC1(CO)CCC(=O)O1` (stereo not given), the melting point turned out to be 59 °C.

Regarding `O=C1NC(=O)C(CCc2ccc(O)cc2)S1` (stereo not given), the melting point fell in the range of 175 to 176 °C.

In the case of `O=C(CCl)COc1cccc(C(F)(F)F)c1`, the melting point is 38 to 39 °C.

Regarding `CN(C(C)(C)C)S(=O)(=O)c1cccnc1SCc1ccccc1`, the melting point was 92 to 94 °C.

The compound `N#Cc1cc(N)c(F)c(-c2ccc(Cl)cc2)n1` came in with a melting point of 185 to 188 °C.

`CCCCc1nn(-c2cccc(NC(=O)CC)c2)c(=O)n1Cc1ccc(-c2ccccc2S(=O)(=O)NC(=O)c2ccccc2Cl)cc1`: the melting point was 105 to 107 °C.

As for `N#Cc1cc(F)cc(-c2cc([N+](=O)[O-])c3c(c2)C2(CCCCC2)C(=O)N3)c1`, the melting point was 196 °C.

Compound `N#CC1(c2ccccc2Oc2ccc(Cl)cc2)CCNCC1` returned a melting point of 128 to 130 °C.

Consider `CCC(Oc1cc(C)c(Cl)c(C)c1)C(=O)NCc1cccs1` (stereo not given), for which the melting point was 105 to 107 °C.

On to `O=C(O)CCC12CCC(=O)N1C(=O)CC2`, for which the melting point was in the range of 179 to 181 °C.

Consider `C=CCn1cc(C(O)(c2ccc3c(cnn3C(=O)NCC)c2)C(F)(F)F)c2ccccc21` (stereo not given), for which the melting point fell in the range of 162 to 164 °C.

Regarding `COc1ccc(C)cc1NC(=O)Nc1ccc2c(c1)C=CN(C(=O)Nc1c(C)cccc1Cl)C2`, the melting point lay in the range of 216 to 218 °C.

`CCCCOC(=O)c1c(CBr)nc2cc(OC)c(OC)cc2c1-c1ccc(OC)c(OC)c1` had a melting point of 160 to 161 °C.

For the compound `COCCNC(=O)c1nc2cc(NC(=O)c3c(C(=O)N4CCC4)cnn3C)ccn2n1`, the melting point was in the range of 159 to 161 °C.

`CON=C(C(=O)O)c1nc(NC=O)ccc1Cl` had a melting point of 151 to 154 °C.

The compound `Nc1nc(N)c2nc(N)n(COC(CO)CO)c2n1` gave a melting point of 206 to 208 °C.

`N#Cc1cccc(-c2cccs2)n1` gave a melting point of 88.2 to 88.6 °C.

The compound `CC(C)C(=NO)c1ccc(Cl)cc1` displayed a melting point of 91 to 117 °C.

For `COc1ccc(C=O)c(OC)c1C`, the melting point was in the range of 51 to 52 °C.

In the case of `Cc1nn(C(N)=O)c2c1C(=O)CC(C)(C)C2`, the melting point lay in the range of 173 to 175 °C.

Take `CCn1ncnc1COc1nc2c(cc1C(C)(C)C)nnn2-c1ccccc1`: the melting point lay in the range of 161 to 163 °C.

Consider `CC(O)Cc1cccc(S(N)(=O)=O)c1` (stereo not given), for which the melting point is 149 to 150 °C.

Regarding `COCc1nnc(-c2cccnc2)n1-c1c(Cl)c(Cl)cc2[nH]c(=O)c(=O)[nH]c12`, the melting point was 222 to 224 °C.

As to `Clc1nc(Nc2ccccc2)c2ccccc2n1`, the melting point lay in the range of 194 to 196 °C.

As for `Cc1ccc(S(=O)(=O)NCCCCOc2ccc(-c3nc(-c4ccc(Cl)cc4)cs3)cc2)cc1`, the melting point lay within 158 to 159 °C.

For the compound `C[C@]1(COc2ccc(N3CCN(c4ccc(OC(F)(F)F)cc4)CC3)cc2)Cn2cc([N+](=O)[O-])nc2O1`, the melting point was in the range of 262 to 265 °C.

For the compound `NC(=O)c1ccc2c(c1)C(=C(Cl)Cl)OC(=C(Cl)Cl)O2`, the melting point lay within 217 to 218 °C.

Regarding `Cc1nc(-c2ccc(OC(C)C)c([N+](=O)[O-])c2)sc1C(=O)O`, the melting point is 211 to 213 °C.

Compound `Cc1c(C)c(N2CCN(C(=O)OC(C)(C)C)CC2)c(C)c2c1OC(C)(C)C2N1CCCC1` (stereo not given) had a melting point of 127 to 128 °C.

Consider `C#CC(C)(C)Oc1ccc(-c2ccnc(C)c2)cc1`, for which the melting point is 37 to 40 °C.

On to `COc1ccc2c(c1)-c1c(cc(C)n1C[C@@H](C)O)C2`, for which the melting point was 110 °C.

The compound `c1cncc(Nc2nnc(Cc3ccncc3)c3ccccc23)c1` came in with a melting point of 137 to 139 °C.

Compound `CC(C)NC(=O)C(Cc1ccccc1)NC(=O)Nc1n[nH]c(=S)s1` (stereo not given) returned a melting point of 206 to 211 °C.

Consider `O=C(O)Cc1cc2c3ccccc3[nH]c(=O)n2n1`, for which the melting point is 253 to 254 °C.

In turn, `COc1cc(CN(C)c2nn(-c3ccccc3)cc2C=O)ccc1OCc1nc(-c2ccco2)oc1C` had a melting point of 101 to 102 °C.

`CN1CCN(c2ccc3c(c2)NC(=O)C(C)(c2ccc(N)cc2)C3=O)CC1` (stereo not given): the melting point fell in the range of 265 to 267 °C.

For the compound `COc1cccc(N=C(NC#N)Oc2ccccc2)c1`, the melting point lay within 170 to 171 °C.

For the compound `CCOC(=O)c1cnc2n(CC)c3ccccc3n2c1=O`, the melting point is 118 to 120 °C.

`COc1ccc(C(=O)Nc2ccccc2)cc1NCc1cccc(C(=O)O)c1`: the melting point is 210 to 212 °C.

Compound `COC(=O)c1ccc(S(C)(=O)=O)c(C2=NOC(C)C2)c1Cl` (stereo not given) had a melting point of 130 to 135 °C.

For `COC(=O)c1c(-c2ccc(Cl)cc2)ccnc1Sc1nc(OC)cc(OC)n1`, the melting point is 138 to 142 °C.

For the compound `Cc1onc(-c2c(Cl)cccc2Cl)c1CSc1ccc(OCC(=O)O)c2c1CCC2`, the melting point lay within 151 to 152 °C.

`Cc1nc2c(s1)CC(=O)CC2` came in with a melting point of 95 to 96 °C.

The compound `Cc1[nH]c(C(=O)N2CCC(C(=O)N(C)CCN(C)C)CC2)c(C)c1-c1nc2ccc(C(=O)c3ccccc3)cc2[nH]1` yielded a melting point of 264 to 266 °C.
